# Assay results taken from patent US7232839B2, “Benzoisothiazolone compositions” (L'Oreal, priority 2004, dated 2007).
# What was measured:
# [1] = tested on: immortalized human sebocytes in culture, derived from the SZ95 line; assay: Lipogenesis test: lipid content of sebocytes in culture by Nile red fluorescence; format: cell-based; conditions: for LIPID VARIATION (relative to the control): treatment for 2 days, neutral lipids, Nile red
# Method: The activity of the compounds (2c) and (1e) described above was tested on a model of immortalized human sebocytes in culture, derived from the SZ95 line described in Zouboulis, C. C., Seltmann, H., Neitzel, H. & Orfanos, C. E., Establishment and Characterization of an Immortalized Human Sebaceous Gland Cell Line, J. Invest. Dermatol., 113, 1011–1020 (1999).
# The test consisted in measuring the amount of lipids produced by the sebocytes of the line (at confluence), in the presence or absence of an active agent, diluted in DMSO, such that the final amount of DMSO in the culture medium is 0.1%. After treatment for 2 days, the adherent cells are treated with Nile red (1 μg/ml). The lipid content is then quantified by measuring the fluorescence of the dye (excitation/emission couple: 485–540 nm for the neutral lipids).
# The tests are performed in sextuplicate and the experiment is repeated four times.
# [2] = tested on: immortalized human sebocytes in culture, derived from the SZ95 line; assay: Proliferation tests (MUH) and cell viability tests (LDH) run in parallel; format: cell-based
# Text: In parallel, proliferation tests (MUH) and cell viability tests (LDH) make it possible to check that the, effects obtained are not associated with an appreciable change in these biological parameters.
SMILES,LIPID VARIATION (relative to the control) ([1]; concentration 10^−4 M),LIPID VARIATION (relative to the control) ([1]; concentration 10^−6 M),Proliferation/cytotoxicity ([2]; concentration 10^−4 M),Proliferation/cytotoxicity ([2]; concentration 10^−6 M),"increase in the lipid content of the sebum ([1]; concentration 10^−5 M, same test)"
"O=C1c2c(O)cccc2S(=O)(=O)N1c1ccccc1 [(1e), 4-hydroxy-2-phenyl-1,2-benzisothiazol-3(2H)-one 1,1-dioxide]",+39%,+16%,no,no,–
"COc1ccc(N2C(=O)c3c(OC)cccc3S2(=O)=O)cc1 [(2c), 4-methoxy-2-(4-methoxyphenyl)-1,2-benzisothiazol-3(2H)-one 1,1-dioxide]",–,+43%,–,no,–
"C[C@]12CC[C@H](O)CC1=CC[C@@H]1[C@@H]2CC[C@]2(C)C(=O)CC[C@@H]12 [DHEA, reference compound]",–,–,–,–,13%
